This note sets out measurements from patent publication US9321738B2, “N-alkyltriazole compounds as LPAR antagonists” (Hoffmann-La Roche Inc., priority 2012, dated 2016).

Assay [1] concerns the target human recombinant LPA1 Lysophospholipid receptor (Homo sapiens (Human), UniProt Q92633). In words: Calcium flux assay using FLIPR, LPAR1 antagonist activity. The assay is classed as cell-based. The note with it: for IC50: ChemiScreen stable cell line, antagonist mode, calcium flux. The method, then:
(§1) Calcium Flux Assay Using Fluorometric Imaging Plate Reader (FLIPR)
Cell Culture Conditions: The ChemiScreen Calcium-optimized stable cell line containing the human recombinant LPA1 Lysophospholipid receptor was purchased from Chemicon International, Inc./Millipore. The cells were cultured in DMEM-high glucose supplemented with 10% fetal bovine serum, 2 mM glutamine, 100 U/mL penicillin/100 μg/mL streptomycin, 1× non-essential amino acids, 10 mM HEPES and 0.25 mg/mL Geneticin. Cells were harvested with trypsin-EDTA and counted using ViaCount reagent. The cell suspension volume was adjusted to 2.0×10^5 cells/mL with complete growth media. Aliquots of 50 μL were dispensed into 384 well black/clear tissue culture treated plates (BD) and the microplates were placed in a 37° C. incubator overnight. The following day plates were used in the assay.
(§2) Dye Loading and Assay: Loading Buffer (FLIPR Calcium-4, Molecular Devices) was prepared by dissolving the contents of one bottle into 100 mL Hank's Balanced Salt Solution containing 20 mM HEPES and 2.5 mM probenecid. Plates were loaded onto Biotek plate washer and growth media was removed and replaced with 20 μL of Hank's Balanced Salt Solution containing 20 mM HEPES and 2.5 mM probenecid, followed by 25 μL of Loading Buffer. The plates were then incubated for 30 minutes at 37° C.
(§3) During the incubation, test compounds were prepared by adding 90 μL of HBSS/20 mM HEPES/0.1% BSA buffer to 2 μL of serially diluted compounds. To prepare serial dilutions, 10 mM stocks of compounds were prepared in 100% DMSO. The compound dilution plate was set up as follows: well #1 received 29 μL of stock compound and 31 μL DMSO. Wells 2-10 received 40 μL of DMSO. After mixing, 20 μL of solution from well #1 was transferred into well #2, followed by 1:3 serial dilutions out 10 steps. 2 μL of diluted compound was transferred into duplicate wells of 384 well “assay plate” and then 90 μL of buffer was added.
(§4) After incubation, both the cell and “assay” plates were brought to the FLIPR and 20 μL of the diluted compounds were transferred to the cell plates by the FLIPR. Compound addition was monitored by the FLIPR to detect any agonist activity of the compounds. Plates were then incubated for 30 minutes at room temperature protected from light. After the incubation, plates were returned to the FLIPR and 20 μL of 4.5× concentrated agonist was added to the cell plates. During the assay, fluorescence readings were taken simultaneously from all 384 wells of the cell plate every 1.5 seconds. Five readings were taken to establish a stable baseline, then 20 μL of sample was rapidly (30 μL/sec) and simultaneously added to each well of the cell plate. The fluorescence was continuously monitored before, during and after sample addition for a total elapsed time of 100 seconds. Responses (increase in peak fluorescence) in each well following agonist addition was determined. The initial fluorescence reading from each well, prior to ligand stimulation, was used as zero baseline value for the data from that well. The responses were expressed as % inhibition of the buffer control. The IC50 value, defined as the concentration of a compound that is required for 50% inhibition of the buffer control, was calculated by fitting the percent inhibition data for 10 concentrations to a sigmoidal dose-response (4 parameter logistic) model using Genedata Condoseo program [model 205, F(x)=(A+(B−A)/(1+((C/x)^D))))].
In general terms: Calcium assays in cells follow changes in intracellular calcium, usually with a dye or a luminescent sensor.

The target of another assay is LPAR3 (Homo sapiens (Human), UniProt Q9UBY5). Briefly: Calcium flux assay using FLIPR, LPAR3 antagonist activity. It counts as cell-based. The note with it: for IC50: antagonist mode, calcium flux. How it is done: as §1, §2, §3, §4
LPAR3, sequence (Q9UBY5 whole entry, species assumed): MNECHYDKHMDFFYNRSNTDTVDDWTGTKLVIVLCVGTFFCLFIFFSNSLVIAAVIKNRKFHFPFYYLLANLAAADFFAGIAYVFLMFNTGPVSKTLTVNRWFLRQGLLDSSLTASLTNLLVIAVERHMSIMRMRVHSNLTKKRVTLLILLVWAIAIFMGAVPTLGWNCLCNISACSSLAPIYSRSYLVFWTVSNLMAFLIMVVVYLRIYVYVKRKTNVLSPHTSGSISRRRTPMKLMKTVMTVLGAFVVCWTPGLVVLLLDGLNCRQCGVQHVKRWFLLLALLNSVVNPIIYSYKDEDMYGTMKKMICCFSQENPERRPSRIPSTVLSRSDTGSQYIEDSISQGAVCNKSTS

The structures appear in SMILES notation.

human recombinant LPA1 Lysophospholipid receptor, sequence (Q92633 whole entry): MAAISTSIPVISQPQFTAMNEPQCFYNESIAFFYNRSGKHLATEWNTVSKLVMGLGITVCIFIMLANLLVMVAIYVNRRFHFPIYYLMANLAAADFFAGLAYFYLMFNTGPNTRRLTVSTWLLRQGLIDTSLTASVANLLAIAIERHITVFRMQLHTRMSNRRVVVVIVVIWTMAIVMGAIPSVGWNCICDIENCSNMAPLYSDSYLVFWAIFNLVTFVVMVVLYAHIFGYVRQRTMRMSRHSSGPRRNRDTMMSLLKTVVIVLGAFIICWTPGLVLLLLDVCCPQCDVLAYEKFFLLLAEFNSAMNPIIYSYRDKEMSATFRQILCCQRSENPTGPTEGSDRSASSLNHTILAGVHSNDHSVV

`CC(OC(=O)Nc1c(-c2ccc(-c3ccc(C4(C(=O)O)CC4)cc3)cc2)nnn1C)c1cccc(C(F)(F)F)c1` (racemic) [Example 4, 1-(4′-{1-Methyl-5-[1-(3-trifluoromethyl-phenyl)-ethoxycarbonylamino]-1H-[1,2,3]triazol-4-yl}-biphenyl-4-yl)-cyclopropanecarboxylic acid]: the results for the IC50 (in assay [1]; on LPAR3) were 46 nM and 279 nM, respectively.
As to `C[C@@H](OC(=O)Nc1c(-c2ccc(Br)cc2)nnn1C)c1ccccc1` [Example 1, [5-(4-Bromo-phenyl)-3-methyl-3H-[1,2,3]triazol-4-yl]-carbamic acid (R)-1-phenyl-ethyl ester], the IC50 was 21900 nM in assay [1] and over 30000 nM on LPAR3. The inhibition at 30 µM in assay [1] (at 30 μM) worked out at 52.3%.
For the molecule `C[C@@H](OC(=O)Nc1c(-c2ccc(-c3ccc(C4(C(=O)O)CC4)cc3)cc2)nnn1C)c1ccccc1` [Example 2, 1-{4′-[1-Methyl-5-((R)-1-phenyl-ethoxycarbonylamino)-1H-[1,2,3]triazol-4-yl]-biphenyl-4-yl}-cyclopropanecarboxylic acid], the results for the IC50 (in assay [1]; at LPAR3) were 18 nM and 2290 nM, respectively.
Regarding `C[C@@H](OC(=O)Nc1c(-c2ccc(-c3ccc(CC(=O)O)cc3)cc2)nnn1C)c1ccccc1` [Example 3, {4′-[1-Methyl-5-((R)-1-phenyl-ethoxycarbonylamino)-1H-[1,2,3]triazol-4-yl]-biphenyl-4-yl}-acetic acid], in assay [1], the IC50 was found to be 48 nM. Besides, on LPAR3, the concentration for half-maximal inhibition (IC50) was 21900 nM and the inhibition at 30 µM stood at 58.2%.
In the case of `C[C@H](OC(=O)Nc1c(-c2ccc(-c3ccc(C4(C(=O)O)CC4)cc3)cc2)nnn1C)c1cccc(C(F)(F)F)c1` [Example 5, 1-(4′-{1-Methyl-5-[(S)-1-(3-trifluoromethyl-phenyl)-ethoxycarbonylamino]-1H-[1,2,3]triazol-4-yl}-biphenyl-4-yl)-cyclopropanecarboxylic acid], the values for the IC50 (in assay [1]; on LPAR3) were 2660 nM and 6310 nM, respectively.
Consider `C[C@@H](OC(=O)Nc1c(-c2ccc(-c3ccc(C4(C(=O)O)CC4)cc3)cc2)nnn1C)c1cccc(C(F)(F)F)c1` [Example 6, 1-(4′-{1-Methyl-5-[(R)-1-(3-trifluoromethyl-phenyl)-ethoxycarbonylamino]-1H-[1,2,3]triazol-4-yl}-biphenyl-4-yl)-cyclopropanecarboxylic acid], for which the results for the IC50 (in assay [1]; on LPAR3) were 18 nM and 132 nM, respectively.
As to `CC(C)[C@@H](C)OC(=O)Nc1c(-c2ccc(-c3ccc(C4(C(=O)O)CC4)cc3)cc2)nnn1C` [Example 7, 1-{4′-[5-((R)-1,2-Dimethyl-propoxycarbonylamino)-1-methyl-1H-[1,2,3]triazol-4-yl]biphenyl-4-yl}-cyclopropanecarboxylic acid], the IC50 in assay [1] was 70 nM; on LPAR3, over 30000 nM.
Consider `C[C@@H](OC(=O)Nc1nnn(C)c1-c1ccc(-c2ccc(C3(C(=O)O)CC3)cc2)cc1)c1ccccc1` [Example 8, 1-{4′-[3-Methyl-5-((R)-1-phenyl-ethoxycarbonylamino)-3H-[1,2,3]triazol-4-yl]-biphenyl-4-yl}-cyclopropanecarboxylic acid], for which the IC50 (in assay [1]; on LPAR3) was over 30000 nM throughout.
Regarding `C[C@@H](OC(=O)Nc1c(-c2ccc(-c3cccc(C4(C(=O)O)CC4)c3)cc2)nnn1C)c1ccccc1` [Example 9, (R)-1-(4′-(1-Methyl-5-((1-phenylethoxy)carbonylamino)-1H-1,2,3-triazol-4-yl)biphenyl-3-yl)cyclopropanecarboxylic acid], in assay [1], the half-maximal inhibitory concentration (IC50) was determined as 4450 nM. On LPAR3, the IC50 was 18400 nM and the inhibition at 30 µM was 62%.
As for `COC(=O)C1(c2ccc(-c3ccc(-c4nnn(C)c4NC(=O)O[C@H](C)c4ccccc4)c(F)c3)cc2)CC1` [Example 10, 1-{3′-Fluoro-4′-[1-methyl-5-((R)-1-phenyl-ethoxycarbonylamino)-1H-[1,2,3]triazole-4-yl]-biphenyl-4-yl}-cyclopropanecarboxylic acid methyl ester], the IC50 (in assay [1]; on LPAR3) was over 30000 nM in each case.
For the molecule `C[C@@H](OC(=O)Nc1c(-c2ccc(-c3ccc(C4(C(=O)O)CC4)cc3)cc2F)nnn1C)c1ccccc1` [Example 11, 1-{3′-Fluoro-4′-[1-methyl-5-((R)-1-phenyl-ethoxycarbonylamino)-1H-[1,2,3]triazole-4-yl]-biphenyl-4-yl}-cyclopropanecarboxylic acid], the concentration for half-maximal inhibition (IC50) in assay [1] stood at 18 nM. On LPAR3, the IC50 stood at 27400 nM and the inhibition at 30 µM is 62%.
Consider `C[C@@H](OC(=O)Nc1c(-c2ccc(-c3ccc(C4(C(=O)NS(C)(=O)=O)CC4)cc3)cc2)nnn1C)c1ccccc1` [Example 12, {5-[4′-(1-Methanesulfonylaminocarbonyl-cyclopropyl)-biphenyl-4-yl]-3-methyl-3H-[1,2,3]triazol-4-yl}-carbamic acid (R)-1-phenyl-ethyl ester], for which the half-maximal inhibitory concentration (IC50) in assay [1] is 18.8 nM; on LPAR3, 2310 nM.
Regarding `C[C@@H](OC(=O)Nc1c(-c2ccc(-c3ccc(C4(C(=O)NS(C)(=O)=O)CC4)cc3)cc2)nnn1C)c1cccc(C(F)(F)F)c1` [Example 13, {5-[4′-(1-Methanesulfonylaminocarbonyl-cyclopropyl)-biphenyl-4-yl]-3-methyl-3H-[1,2,3]triazol-4-yl}-carbamic acid (R)-1-(3-trifluoromethyl-phenyl)-ethyl ester], the IC50 came to 24.5 nM in assay [1] and 65.7 nM at LPAR3.
As to `C[C@@H](OC(=O)Nc1c(-c2ccc(C3CCC(CC(=O)O)CC3)cc2)nnn1C)c1ccccc1` (stereo partly drawn) [Example 14, (4-{4-[1-Methyl-5-((R)-1-phenyl-ethoxycarbonylamino)-1H-[1,2,3]triazol-4-yl]-phenyl}-cyclohexyl)-acetic acid], the IC50 stood at 58 nM in assay [1] and 18600 nM on LPAR3. Further, the inhibition at 30 µM at LPAR3 was 68%.

Broadly, the IC50 is the point on the concentration scale where inhibition reaches its midpoint. What is called inhibition is the relative decrease from the control value, in per cent.
